For ten compounds, solubility results are on record in ChEMBL document CHEMBL4825714, “Hinge Binder Scaffold Hopping Identifies Potent Calcium/Calmodulin-Dependent Protein Kinase Kinase 2 (CAMKK2) Inhibitor Chemotypes” (J Med Chem, 2021).

In brackets after ≈: the same amount, converted by molar mass.

The data set is described as follows: Solubility of the compound. Type of data set: physicochemical.
With `O=C(O)c1ccc(-c2ncnc3ccc(-c4ccccc4)cc23)cc1C1CCCC1`, the concentration in solution (solubility) was 70.4 µg/mL (≈ 178 µM).

For the compound `O=C(O)c1ccc(-c2cnn3ccc(-c4ccccc4)cc23)cc1C1CCCC1`, the concentration in solution (solubility) was 42 µg/mL (≈ 110 µM).

With `O=C(O)c1ccc(-c2ccnc3ccccc23)cc1C1CCCC1`, the solubility (usually how much of the substance goes into solution per volume) came out at 64.4 µg/mL (≈ 203 µM).

`O=C(O)c1ccc(-c2ncnc3sccc23)cc1C1CCCC1` showed a solubility of 62.6 µg/mL (≈ 193 µM).

Compound `O=C(O)c1ccc(-c2ccnc(Nc3ccccc3)n2)cc1C1CCCC1` yielded a solubility of 10.6 µg/mL (≈ 29.5 µM).

`Cn1ccc2c(-c3ccc(C(=O)O)c(C4CCCC4)c3)ccnc21` displayed a solubility of 40 µg/mL (≈ 125 µM).

In the case of `O=C(O)c1ccc(-c2csc3ncc(-c4ccccc4)cc23)cc1C1CCCC1`, the solubility amounted to 1.5 µg/mL (≈ 3.75 µM). This solubility lies about 27-fold lower than the previous one.

`O=C(O)c1ccc(-c2ccncn2)cc1C1CCCC1`: the solubility is 19.4 µg/mL (≈ 72.3 µM).

`O=C(O)c1ccc(-c2ccnc3ccc(-c4ccccc4)cc23)cc1C1CCCC1` had a solubility of 38 µg/mL (≈ 96.6 µM). Against the preceding compound, the solubility is about 2-fold higher.

Turning to `O=C(O)c1ccc(-c2c[nH]c3ncc(-c4ccccc4)cc23)cc1C1CCCC1` [GSK-650394], the concentration in solution (solubility) was 2 µg/mL (≈ 5.23 µM). Against the preceding compound, the solubility is about 19-fold lower.
